Source: article PMC11428108 (Frontiers in Molecular Neuroscience, 2024)
Where “and” joins values, the source holds several entries; their conditions need not be identical. Identical values can stand only once. Entries after “also recorded” stand apart in the source; their conditions may differ. Like-named read-outs stand apart in the source and are kept apart here.

Columns and labels:
[1] = system: human (α3)2(β4)2α3/β4 (α3β4*) nAChRs; assay: FLEXstation membrane potential assay in HEK cells stably expressing α3β4* nAChRs; assay type: cell-based; details: SR9883 0.0005–10 μM
Text: (§1) Human embryonic kidney (HEK) cell lines stably expressing human (α4)2(β2)2β2/α4 (α4β2*) nAChRs, (α4)2(β2)2α5 nAChRs, (α4)2(β2)2β3 nAChRs, (α3)2(β4)2α3/β4 (α3β4*) nAChRs, (α3)2(β2)2α3/β2 (α3β2*) nAChRs, (α3)2(β4)2α5 nAChRs, or (α3)2(β2)2α5 nAChRs were maintained as described previously ([Wang et al., 2015]; [Kuryatov et al., 2005]; [Caligiuri et al., 2022]). The FLEXstation bench top scanning fluorometer from Molecular Devices was used to assay nAChR function in these cells, according to published protocols ([Wang et al., 2015]; [Kuryatov et al., 2005]). The membrane potential kit (Molecular Devices) was used according to the manufacturer’s protocols. Serial dilutions of SR9883 were manually added to the assay plate 15 min prior to recording. […] Potency and efficacy were calculated using the Hill equation as described previously ([Wang et al., 2015]).
(§2) Concentration-response curves of SR9883 actions in nAChR-expressing HEK cells and oocytes were fitted to the Hill equation using a nonlinear least squares curve fit method and efficacy and potency values were calculated as previously described ([Wang et al., 2015]). […] For the ICSS threshold experiment, percentages of baseline reward threshold scores were calculated by expressing the absolute threshold scores as a percentage of the scores obtained during baseline. […] Response latency data were analyzed in the same manner as the threshold data. […]

[2] = Plasma pharmacokinetics after IV or PO administration; assay type: in vivo, male C57BL/6J mice
Method: (§3) Mice prepared with intravenous catheters and treated with SR9883 via oral (10 mg kg^−1) or intravenous (1 mg kg^−1) routes of administration. Blood samples were collected up to 240 min after treatment into lithium heparin coated tubes (Ram Scientific) and stored on wet ice. Blood samples were later centrifuged for 3 min at 5,000 RPM to separate plasma from red blood cells. Plasma was collected into a fresh tube and stored at −80°C. A separate group of mice was treated with SR9883 (20 mg kg^−1 PO) and killed by cervical dislocation 120 min later. Their brains were collected and stored at −80°C. SR9883 levels were quantified in plasma and brain by mass spectrometry using an ABSciex 5,500 instrument and using multiple reaction monitoring as previously described ([Radnai et al., 2021]). Brain samples were homogenized in saline and then immediately treated with twice the amount (v:v) of acetonitrile to extract the compound. Plasma samples were directly treated with acetonitrile. Samples were filtered through a 0.2 μm filter plate prior to injection onto the LC–MS/MS as previously described ([Radnai et al., 2021]).

male Wistar rats = assay: Intravenous nicotine self-administration (FR5TO20); assay type: in vivo; details: for Numbers of nicotine infusions earned vs vehicle: nicotine 0.03 mg kg^−1 per infusion
Method: Operant chambers (Med Associates, East Fairfield, VT, United States) were used to assess responding by rats for food pellets and intravenous nicotine infusions. […] All rats were food-restricted to maintain their body weight at approximately 85% that of free-feeding weights. They were then trained to press an active lever for 45 mg food pellets on a fixed ratio 5 time-out 20 s (FR5TO20) schedule of reinforcement. […] Rats responded for food rewards until a reliable responding was achieved, defined as >90 pellets earned per 60 min session across three consecutive sessions. […] Rats were anesthetized using 1–3% isoflurane inhalation in oxygen and catheters were implanted into the left jugular vein. The catheter was passed subcutaneously to a polyethylene assembly mounted on the animals’ back. […] During the time period, responding on the active lever had no scheduled consequence.
(§4) Concentration-response curves of SR9883 actions in nAChR-expressing HEK cells and oocytes were fitted to the Hill equation using a nonlinear least squares curve fit method and efficacy and potency values were calculated as previously described ([Wang et al., 2015]). Plasma and brain levels of SR9983 after oral administration were compared using a two-tailed paired t test. […] For the ICSS threshold experiment, percentages of baseline reward threshold scores were calculated by expressing the absolute threshold scores as a percentage of the scores obtained during baseline. The baseline values were the mean thresholds on the three sessions prior to drug injections. Response latency data were analyzed in the same manner as the threshold data. […] Effects of SR9883 on responding for food pellets in rats was analyzed by a two-tailed paired t test. […] Significant main or interaction effects in ANOVAs were followed by Bonferroni or Newman–Keuls post-hoc tests as appropriate. All statistical analyses were performed using GraphPad Prism software with α set to 0.05.

[3] = target: T1, human (α3)2(β2)2α5 nAChRs (Homo sapiens, UniProt P17787+P30532+P32297); assay: FLEXstation membrane potential assay in HEK cells stably expressing (α3)2(β2)2α5 nAChRs; assay type: cell-based; details: SR9883 0.0005–10 μM
T1 construct: expressed in transfected cells
T1 sequence (P32297 32-505): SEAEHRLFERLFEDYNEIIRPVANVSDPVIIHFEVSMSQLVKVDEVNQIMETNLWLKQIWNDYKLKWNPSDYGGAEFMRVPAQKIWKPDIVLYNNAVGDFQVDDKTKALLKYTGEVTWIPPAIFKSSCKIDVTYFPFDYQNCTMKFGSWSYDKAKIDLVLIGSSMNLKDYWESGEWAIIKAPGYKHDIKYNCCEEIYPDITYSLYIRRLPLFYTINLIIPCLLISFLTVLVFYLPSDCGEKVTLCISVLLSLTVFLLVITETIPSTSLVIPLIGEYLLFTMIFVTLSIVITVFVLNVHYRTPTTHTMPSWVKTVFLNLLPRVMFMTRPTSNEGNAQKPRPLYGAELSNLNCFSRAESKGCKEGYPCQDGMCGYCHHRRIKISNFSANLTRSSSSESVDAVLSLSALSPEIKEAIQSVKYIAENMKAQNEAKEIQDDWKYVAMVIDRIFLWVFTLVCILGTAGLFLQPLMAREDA
T1 sequence (P17787 26-502): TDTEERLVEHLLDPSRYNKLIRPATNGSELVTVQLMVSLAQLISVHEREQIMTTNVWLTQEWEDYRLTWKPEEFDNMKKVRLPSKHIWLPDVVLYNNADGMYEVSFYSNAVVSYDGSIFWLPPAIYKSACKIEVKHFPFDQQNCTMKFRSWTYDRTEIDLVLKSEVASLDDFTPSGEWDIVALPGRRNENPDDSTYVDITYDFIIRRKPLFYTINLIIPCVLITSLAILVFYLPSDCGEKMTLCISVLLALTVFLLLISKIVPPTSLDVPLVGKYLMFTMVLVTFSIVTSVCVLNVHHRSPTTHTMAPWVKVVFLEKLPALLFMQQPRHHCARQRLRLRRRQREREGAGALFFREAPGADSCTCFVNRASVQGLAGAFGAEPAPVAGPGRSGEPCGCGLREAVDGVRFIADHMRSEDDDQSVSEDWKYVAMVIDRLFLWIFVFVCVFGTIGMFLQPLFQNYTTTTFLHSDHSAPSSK
T1 sequence (P30532 23-468): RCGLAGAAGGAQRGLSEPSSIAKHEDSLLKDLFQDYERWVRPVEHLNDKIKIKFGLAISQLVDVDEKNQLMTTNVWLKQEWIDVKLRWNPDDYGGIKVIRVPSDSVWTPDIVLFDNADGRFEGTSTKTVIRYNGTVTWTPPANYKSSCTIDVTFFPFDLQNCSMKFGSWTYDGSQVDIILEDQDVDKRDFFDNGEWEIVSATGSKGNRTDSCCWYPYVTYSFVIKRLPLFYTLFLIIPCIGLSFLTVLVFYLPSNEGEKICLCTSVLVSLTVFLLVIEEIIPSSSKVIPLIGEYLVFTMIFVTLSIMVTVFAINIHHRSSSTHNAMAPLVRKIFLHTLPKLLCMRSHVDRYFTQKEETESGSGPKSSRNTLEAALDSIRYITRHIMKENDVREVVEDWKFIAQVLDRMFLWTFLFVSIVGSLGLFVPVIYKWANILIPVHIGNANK
Text: as §1, §2

[4] = system: human (α3)2(β2)2α3/β2 (α3β2*) nAChRs; assay: FLEXstation membrane potential assay in HEK cells stably expressing α3β2* nAChRs; assay type: cell-based; details: SR9883 0.0005–10 μM
Text: as §1, §2

[5] = Brain penetration: plasma and brain levels 120 min after oral dosing; assay type: in vivo, C57BL/6J mice; details: C57BL/6J, mouse, 20 mg kg^−1 PO
Method: as §3

[6] = target: human (α4)2(β2)2β2/α4 (α4β2*) nAChRs (Homo sapiens, UniProt P17787+P43681); assay: FLEXstation membrane potential assay in HEK cells stably expressing α4β2* nAChRs; assay type: cell-based; design: expressed in transfected cells
human (α4)2(β2)2β2/α4 (α4β2*) nAChRs, sequence (P43681 27-627): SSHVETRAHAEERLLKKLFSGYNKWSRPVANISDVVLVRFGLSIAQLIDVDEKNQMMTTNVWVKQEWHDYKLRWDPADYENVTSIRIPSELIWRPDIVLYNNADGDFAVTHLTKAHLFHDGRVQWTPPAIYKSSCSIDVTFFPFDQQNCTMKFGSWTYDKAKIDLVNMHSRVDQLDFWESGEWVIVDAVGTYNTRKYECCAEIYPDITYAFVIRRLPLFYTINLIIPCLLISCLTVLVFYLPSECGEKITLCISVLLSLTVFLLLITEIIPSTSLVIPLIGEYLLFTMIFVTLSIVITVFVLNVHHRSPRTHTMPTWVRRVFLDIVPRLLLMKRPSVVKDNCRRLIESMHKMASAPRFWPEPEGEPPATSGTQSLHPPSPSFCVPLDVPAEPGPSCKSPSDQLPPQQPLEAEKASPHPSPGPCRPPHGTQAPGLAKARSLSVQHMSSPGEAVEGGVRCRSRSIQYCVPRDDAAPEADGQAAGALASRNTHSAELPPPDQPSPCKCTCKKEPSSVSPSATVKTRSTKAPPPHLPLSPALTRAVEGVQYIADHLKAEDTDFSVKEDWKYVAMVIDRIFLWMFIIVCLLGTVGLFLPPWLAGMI
human (α4)2(β2)2β2/α4 (α4β2*) nAChRs, sequence (P17787 26-502): as the sequence (P17787 26-502) above
Text: Human embryonic kidney (HEK) cell lines stably expressing human (α4)2(β2)2β2/α4 (α4β2*) nAChRs, (α4)2(β2)2α5 nAChRs, (α4)2(β2)2β3 nAChRs, (α3)2(β4)2α3/β4 (α3β4*) nAChRs, (α3)2(β2)2α3/β2 (α3β2*) nAChRs, (α3)2(β4)2α5 nAChRs, or (α3)2(β2)2α5 nAChRs were maintained as described previously ([Wang et al., 2015]; [Kuryatov et al., 2005]; [Caligiuri et al., 2022]). The FLEXstation bench top scanning fluorometer from Molecular Devices was used to assay nAChR function in these cells, according to published protocols ([Wang et al., 2015]; [Kuryatov et al., 2005]). The membrane potential kit (Molecular Devices) was used according to the manufacturer’s protocols. Serial dilutions of SR9883 were manually added to the assay plate 15 min prior to recording. […] Compound dilutions were prepared in V-shaped 96-well plates (Fisher Scientific Co.) and added to cell culture wells at a rate of 20 μL s^−1 during recording. Cells were incubated at 29°C for 6–20 h prior to assays to upregulate nAChRs ([Wang et al., 2015]; [Kuryatov et al., 2005]). Data points were averaged from 3 to 4 responses from separate wells. Potency and efficacy were calculated using the Hill equation as described previously ([Wang et al., 2015]).
as §4

[7] = system: α4β2*, (α4)2(β2)2α5, and (α4)2(β2)2β3 nAChRs; assay: FLEXstation assay, summary over α4β2* stoichiometries with low-affinity agonist binding sites; assay type: cell-based, human
Text: as §1, §2

[8] = male, C57BL/6J, mouse, IV 1 mg kg^−1, plasma, n = 3
[9] = male, C57BL/6J, mouse, PO 10 mg kg^−1, plasma, n = 3

- EC50 (enhancement of response to EC20-30 nicotine) [1]: no effect; also recorded: No enhancement
- Vss_obs ([2]; IV 1 mg kg^−1, n = 3): 2.72 ± 0.89 L/kg
- Cl_obs ([2]; PO 10 mg kg^−1, n = 3): 24.59 ± 2.42 mL/min/kg
- half-life ([2]; male, C57BL/6J, mouse, plasma, iv, 1 mg/kg, IV 1 mg kg^−1, as stated in text, read-out: plasma half-life (T½)): ~53 min
- Cmax ([2]; male, C57BL/6J, mouse, plasma, iv, 1 mg/kg, IV 1 mg kg^−1, plasma, n = 3): ~775 ng/mL and ~3 µM
- half-life ([2]; male, C57BL/6J, mouse, plasma, iv, 1 mg/kg, IV 1 mg kg^−1, plasma, n = 3, mean (S.E.M.), read-out: T1/2 (converted)): 52.8 ± 21.1 min
- half-life ([2]; male, C57BL/6J, mouse, plasma, other: intravenous and oral, after IV and oral administration, read-out: half-life): 50 to 60 min
- half-life ([2]; male, C57BL/6J, mouse, plasma, po, 10 mg/kg, PO 10 mg kg^−1, as stated in text, read-out: T½): ~64 min
- Cmax ([2]; male, C57BL/6J, mouse, plasma, po, 10 mg/kg, PO 10 mg kg^−1, plasma, n = 3): 1020 ± 60.6 ng/mL
- half-life ([2]; male, C57BL/6J, mouse, plasma, po, 10 mg/kg, PO 10 mg kg^−1, plasma, n = 3, mean (S.E.M.), read-out: T1/2 (converted)): 224 ± 36.6 min
- clearance ([2]; male, C57BL/6J, mouse, plasma, IV 1 mg kg^−1, n = 3, read-out: Cl_obs): 45.7 ± 12.8 mL/min/kg
- AUC(0-t) [2, 8]: 1.77 ± 0.62 µM·h
- Tmax [2, 8]: 4.8 min
- AUC(0-t) [2, 9]: 21.1 ± 0.54 µM·h
- Tmax [2, 9]: 64.8 ± 30.6 min
- EC50 (enhancement of response to EC20-30 nicotine) [3]: no effect; also recorded: No enhancement
- EC50 (enhancement of response to EC20-30 nicotine) [4]: no effect; also recorded: No enhancement
- concentration at 120 min ([5]; brain, read-out: Brain SR9883 level): ~4.5 µM and ~1100 ng/mL
- concentration at 120 min ([5]; plasma, read-out: Plasma SR9883 level): ~2600 ng/mL and ~11 µM
- Effect on maximum response to nicotine ([6]; SR9883 10 μM, nicotine 0.001–50 μM): no effect
- EC50 ([6]; SR9883 0.0005–10 μM on response to EC20-30 nicotine, HEK cells, ±SEM): 381 ± 91.6 nM
- nHill ([6]; SR9883 0.0005–10 μM on response to EC20-30 nicotine, ±SEM): 1.1015 ± 0.2269
- Efficacy ([6]; response to EC20-30 nicotine with SR9883 relative to nicotine alone, ±SEM): 108.92 ± 7.65%
- EC50 ([7]; enhancement of the effect of nicotine, read-out: EC50 values, range over stoichiometries): 200 to 400 nM
SMILES: N#Cc1cccc(-n2nnc(-c3cccnc3)n2)c1 [SR9883, 3-(5-(pyridin-3-yl)-2H-tetrazol-2-yl)benzonitrile]
- Numbers of nicotine infusions earned vs vehicle (male Wistar rats; SR9883 5 mg kg^−1 IP, p = 0.0021): decreased
- Numbers of nicotine infusions earned vs vehicle (male Wistar rats; SR9883 10 mg kg^−1 IP, p < 0.0001): decreased
- Responding on the inactive lever (male Wistar rats; SR9883 5 and 10 mg kg^−1 IP, p = 0.1274, not significant): tended to be decreased
- Residual deficits in nicotine responding across daily sessions after treatment (male Wistar rats; baseline sessions prior to each SR9883 treatment): no residual deficits
- Concentration inducing maximal enhancement of nAChR signaling ([7]; EC20-30 nicotine): ~ 3 μM
